The nature of experiment [1]: Displacement of [3H]flunitrazepam from GABAA benzodiazepine receptor in rat brain membrane. It counts as cell membranes.
The species named for experiment [2] is Rattus norvegicus. Put plainly: Displacement of [3H]flunitrazepam from GABAA benzodiazepine receptor in rat brain membrane at 10 uM. Type of experiment: cell membranes. On the technique in general: Displacement assays read how much labelled ligand stays bound in the presence of the test substance.

The structures appear in SMILES notation. Values joined by “and” are separate entries in the source; they are usually repeats but may differ in a detail not shown here. Identical values can stand only once.

In experiment [1], `Clc1ccc2c(c1)C(c1ccccc1)=NCc1nncn1-2` [ESTAZOLAM] had an IC50 of 46.6 nM.

With `Cc1cc(=O)n2c(n1)CN=C(c1ccccc1)c1cc(Cl)ccc1-2`, the IC50 in experiment [1] is 93.6 nM and 394 nM. Further, the Activity in experiment [2] was determined as 17%.

In the case of `Cc1cc(=O)nc2n1-c1ccc(Cl)cc1C(c1ccccc1Cl)=NC2`, the IC50 in experiment [1] was 8.77 nM and 1.5 nM and 4.35 nM. `CN1C(=O)CN=C(c2ccccc2)c2cc(Cl)ccc21` [DIAZEPAM] yielded a concentration for half-maximal inhibition (IC50) in experiment [1] of 21.2 nM.

For `Cc1cc(=O)n2c(n1)CC/N=C(/c1ccccc1)c1cc(Cl)ccc1-2`, the Activity in experiment [2] was -18%. Regarding `Cc1nnc2n1-c1ccc(Cl)cc1C(c1ccccc1Cl)=NC2` [TRIAZOLAM], in experiment [1], the IC50 is 1.54 nM. Regarding `Cc1cc(=O)nc2n1-c1ccc(Cl)cc1/C(c1ccccc1)=N\CC2`, the Activity in experiment [2] was determined as 24%.

For orientation: IC50 means the point on the concentration scale where inhibition reaches its midpoint.

Source of the values: ChEMBL document CHEMBL1142485, “Axial chirality and affinity at the GABA(A) receptor of pyrimido[1,2-a][1,4]benzodiazepines and related compounds” (Bioorg Med Chem, 2008).
